# In patent publication US7759486B2, “2,4,5-Trisubstituted pyrimidine compounds” (GlaxoSmithKline LLC, priority 2000, dated 2010):
row,Structure (SMILES),melting point
1,"Cc1cc(F)ccc1-c1nc(OCC(CO)CO)nc2c1ccc(=O)n2-c1c(F)cccc1F [Example 133, 8-(2,6-Difluorophenyl)-4-(4-fluoro-2-methylphenyl)-2-(3-hydroxy-2-hydroxymethylpropoxy)-8H-pyrido[2,3-d]pyrimidin-7-one]",77 to 81 °C
2,"Cc1cc(F)ccc1-c1nc(OCCCS(C)(=O)=O)nc2c1ccc(=O)n2-c1c(F)cccc1F [Example 128, 8-(2,6-Difluorophenyl)-4-(4-fluoro-2-methylphenyl)-2-(3-methanesulfonylpropoxy)-8H-pyrido[2,3-d]pyrimidin-7-one]",160 to 162 °C
3,"Cc1cc(F)ccc1-c1nc(Nc2c[nH]c(=O)[nH]c2=O)nc2c1ccc(=O)n2-c1c(F)cccc1F [Example 168, 8-(2,6-Difluorophenyl)-4-(4-fluoro-2-methylphenyl)-2-(N-aminouracil-5-yl)-8H-pyrido[2,3-d]pyrimidin-7-one]",> 300 °C
4,"Cc1cc(F)ccc1-c1nc(NCCO)nc2c1ccc(=O)n2-c1ccccc1F [Example 136, 4-(4-fluoro-2-methylphenyl)-8-(2-fluorophenyl)-2-(2-hydroxylethylamino)-5H-pyrido[2,3-d]pyrimidin-7-one]",120 to 124 °C
5,"Cc1cc(F)ccc1-c1nc(N[C@@H](C)CO)nc2c1ccc(=O)n2-c1c(F)cccc1F [Example 137, (S)-4-(4-fluoro-2-methylphenyl)-8-(2,6-difluorophenyl)-2-[(1-hydroxyprop-2-yl)amino]-8H-pyrido[2,3-d]pyrimidin-7-one]",96 to 101 °C
6,"CCNc1nc(-c2ccc(F)cc2C)c2ccc(=O)n(-c3ccccc3F)c2n1 [Example 140, 2-Ethylamino-4-(4-fluoro-2-methylphenyl)-8-(2-fluorophenyl)-8H-pyrido[2,3-d]pyrimidin-7-one]",176 to 177 °C
7,"Cc1cc(F)ccc1-c1nc(NC(C)(CO)CO)nc2c1ccc(=O)n2-c1c(F)cccc1F [Example 154, 2-(1-hydroxymethyl-1-methyl-2-hydroxyethylamino)-4-(4-fluoro-2-methylphenyl)-8-(2,6-difluorophenyl)-8H-pyrido[2,3-d]pyrimidin-7-one]",158 to 160 °C
8,"CSCCCOc1nc(-c2ccc(F)cc2C)c2ccc(=O)n(-c3c(F)cccc3F)c2n1 [Example 127, 8-(2,6-Difluorophenyl)-4-(4-fluoro-2-methylphenyl)-2-(3-methylsulfanylpropoxy)-8H-pyrido[2,3-d]pyrimidin-7-one]",127 to 128 °C
9,"Cc1cc(F)ccc1-c1nc(OCCNS(C)(=O)=O)nc2c1ccc(=O)n2-c1c(F)cccc1F [Example 134, 8-(2,6-Difluorophenyl)-4-(4-fluoro-2-methylphenyl)-2-(2-methanesulfonyl-aminoethoxy)-8H-pyrido[2,3-d]pyrimidin-7-one]",95 to 99 °C
10,"Cc1cc(F)ccc1-c1nc(NC(C)(CO)CO)nc2c1ccc(=O)n2-c1ccccc1F [Example 152, 2-(1-hydroxymethyl-1-methyl-2-hydroxyethylamino)-4-(4-fluoro-2-methylphenyl)-8-(2-fluorophenyl)-8H-pyrido[2,3-d]pyrimidin-7-one]",160 to 162 °C
11,"Cc1cc(F)ccc1-c1nc(N[C@H](C)CO)nc2c1ccc(=O)n2-c1c(F)cccc1F [Example 138, (R)-4-(4-fluoro-2-methylphenyl)-8-(2,6-difluorophenyl)-2-[(1-hydroxyprop-2-yl)amino]-8H-pyrido[2,3-d]pyrimidin-7-one]",90 to 95 °C
12,"Cc1cc(F)ccc1-c1nc(N[C@H](C)CO)nc2c1ccc(=O)n2-c1ccccc1F [Example 142, (R)-4-(4-fluoro-2-methylphenyl)-8-(2-fluorophenyl)-2-[(1-hydroxyprop-2-yl)amino]-8H-pyrido[2,3-d]pyrimidin-7-one]",116 to 122 °C
13,"Cc1cc(F)ccc1-c1nc(N[C@@H](C)CO)nc2c1ccc(=O)n2-c1ccccc1F [Example 141, (S)-4-(4-fluoro-2-methylphenyl)-8-(2-fluorophenyl)-2-[(1-hydroxyprop-2-yl)amino]-8H-pyrido[2,3-d]pyrimidin-7-one]",114 to 120 °C
14,"Cc1cc(F)ccc1-c1nc(NCC(F)(F)F)nc2c1ccc(=O)n2-c1c(F)cccc1F [Example 153, 2-(2,2,2-Trifluoroethylamino)-4-(4-fluoro-2-methylphenyl)-8-(2,6-difluorophenyl)-8H-pyrido[2,3-d]pyrimidin-7-one]",195 to 196 °C
15,"Cc1cc(F)ccc1-c1nc(NC(C)(C)CO)nc2c1ccc(=O)n2-c1ccccc1F [Example 143, 2-(1,1-dimethyl-2-hydroxyethylamino)-4-(4-fluoro-2-methylphenyl)-8-(2 fluorophenyl)-8H-pyrido[2,3-d]pyrimidin-7-one]",106 to 112 °C
16,"Cc1cc(F)ccc1-c1nc(NC2CCOCC2)nc2c1ccc(=O)n2-c1ccccc1F [Example 146, 2-(Tetrahydropyran-4-ylamino)-4-(4-fluoro-2-methylphenyl)-8-(2-fluorophenyl)-8H-pyrido[2,3-d]pyrimidin-7-one]",211 to 212 °C

# Further lines, results first:
row,melting point,Structure (SMILES)
1,130 to 133 °C,"CCNC(=O)NCCNc1nc(-c2ccc(F)cc2C)c2ccc(=O)n(-c3c(F)cccc3F)c2n1 [Example 158, 1-[2-[8-(2,6-Difluorophenyl)-4-(4-fluoro-2-methylphenyl)-7-oxo-7,8-dihydro-pyrido[2,3-d]pyrimidin-2-ylamino]ethyl]-3-ethylurea]"
2,142 to 148 °C,Cc1cc(F)ccc1-c1nc(NCCNC(=O)Nc2ccccc2)nc2c1ccc(=O)n2-c1c(F)cccc1F [Example 159]
3,106 to 119 °C,Cc1cc(F)ccc1-c1nc(NCCNC(=O)OC(C)(C)C)nc2c1ccc(=O)n2-c1c(F)cccc1F [Example 167]
4,158 to 160 °C,"Cc1cc(F)ccc1-c1nc(N[C@H]2CC[C@H](O)CC2)nc2c1ccc(=O)n2-c1c(F)cccc1F [Example 155, trans-2-(4-Hydroxycyclohexylamino)-4-(4-fluoro-2-methylphenyl)-8-(2,6-difluorophenyl)-8H-pyrido[2,3-d]pyrimidin-7-one]"
5,111 to 133 °C,Cc1cc(F)ccc1-c1nc(NCCNC(=O)C(C)(C)C)nc2c1ccc(=O)n2-c1c(F)cccc1F [Example 166]
6,260 to 261 °C,"Cc1cc(F)ccc1-c1nc(NCC(=O)O)nc2c1ccc(=O)n2-c1c(F)cccc1F [Example 191, N-[8-(2,6-Difluorophenyl)-4-(4-fluoro-2-methylphenyl)-7,8-dihydro-7-oxopyrido[2,3-d]pyrimidin-2-yl]glycine]"
7,250 to 253 °C (dec.),CCNC(=O)CNc1nc(-c2ccc(F)cc2C)c2ccc(=O)n(-c3c(F)cccc3F)c2n1 [Example 192]
8,178 to 183 °C,"Cc1cc(F)ccc1-c1nc(NCCNC(=O)NC2CCCCC2)nc2c1ccc(=O)n2-c1c(F)cccc1F [Example 160, 1-[2-[8-(2,6-Difluorophenyl)-4-(4-fluoro-2-methylphenyl)-7-oxo-7,8-dihydro-pyrido[2,3-d]pyrimidin-2-ylamino]ethyl]-3-cyclohexylurea]"
9,231 to 232 °C,"Cc1cc(F)ccc1-c1nc(NC2CCOCC2)nc2c1ccc(=O)n2-c1c(F)cccc1F [Example 149, 2-(Tetrahydropyran-4-ylamino)-4-(4-fluoro-2-methylphenyl)-8-(2,6-difluorophenyl)-8H-pyrido[2,3-d]pyrimidin-7-one]"
10,75 to 79 °C,"CC(=O)NCCOc1nc(-c2ccc(F)cc2C)c2ccc(=O)n(-c3c(F)cccc3F)c2n1 [Example 132, 8-(2,6-Difluorophenyl)-4-(4-fluoro-2-methylphenyl)-2-(2-acetylaminoethoxy)-8H-pyrido[2,3-d]pyrimidin-7-one]"
11,212 to 213 °C,"COC(=O)CNc1nc(-c2ccc(F)cc2C)c2ccc(=O)n(-c3c(F)cccc3F)c2n1 [Example 190, Methyl N-[8-(2,6-difluorophenyl)-4-(4-fluoro-2-methylphenyl)-7,8-dihydro-7-oxopyrido[2,3-d]pyrimidin-2-yl] glycinate]"
12,99 to 105 °C,"Cc1cc(F)ccc1-c1nc(NC(C)(C)CO)nc2c1ccc(=O)n2-c1c(F)cccc1F [Example 139, 4-(4-fluoro-2-methylphenyl)-8-(2,6-difluorophenyl)-2-(1,1-dimethyl-2-hydroxyethylamino)-8H-pyrido[2,3-d]pyrimidin-7-one]"
13,195 to 196 °C,"CCNc1nc(-c2ccc(F)cc2C)c2ccc(=O)n(-c3c(F)cccc3F)c2n1 [Example 147, 2-Ethylamino-4-(4-fluoro-2-methylphenyl)-8-(2,6-difluorophenyl)-8H-pyrido[2,3-d]pyrimidin-7-one]"
